Test system: P12-Ichikawa
Assay: cell viability relative to DMSO control; higher = less cytotoxic
Conditions: 48 h
Procedure, shortened: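 Cells were incubated for 48 h at 37°C before CellTiter-Glo One luminescence was read. The cells were NOMO1 or SEM (500 cells/well) or P12-Ichikawa (1000 cells/well) leukemia cells, adapted for at least four passages in each medium and seeded in 1536-well plates (5 μl). Dosing used library compounds in DMSO applied by pin over 11 threefold points, 47 μM to 0.79 nM. Viability is the per-plate percentage of DMSO wells, with cell-free wells as background.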

[1] = HPLM + 10% dialyzed FBS, 0.000781 µM
[2] = HPLM + 10% dialyzed FBS, 0.00234 µM
[3] = HPLM + 10% dialyzed FBS, 0.00702 µM
[4] = HPLM + 10% dialyzed FBS, 0.0211 µM
[5] = HPLM + 10% dialyzed FBS, 0.0632 µM
[6] = HPLM + 10% dialyzed FBS, 0.19 µM
[7] = HPLM + 10% dialyzed FBS, 0.569 µM
[8] = HPLM + 10% dialyzed FBS, 1.71 µM
[9] = HPLM + 10% dialyzed FBS, 5.12 µM
[10] = HPLM + 10% dialyzed FBS, 15.4 µM
[11] = HPLM + 10% dialyzed FBS, 46.1 µM
[12] = RPMI 5 mM glucose + 10% FBS, 0.000781 µM
[13] = RPMI 5 mM glucose + 10% FBS, 0.00234 µM
[14] = RPMI 5 mM glucose + 10% FBS, 0.00702 µM
[15] = RPMI 5 mM glucose + 10% FBS, 0.0211 µM
[16] = RPMI 5 mM glucose + 10% FBS, 0.0632 µM
[17] = RPMI 5 mM glucose + 10% FBS, 0.19 µM
[18] = RPMI 5 mM glucose + 10% FBS, 0.569 µM
[19] = RPMI 5 mM glucose + 10% FBS, 1.71 µM
[20] = RPMI 5 mM glucose + 10% FBS, 5.12 µM
[21] = RPMI 5 mM glucose + 10% FBS, 15.4 µM
[22] = RPMI 5 mM glucose + 10% FBS, 46.1 µM
[23] = RPMI 5 mM glucose + 10% dialyzed FBS, 0.000781 µM
[24] = RPMI 5 mM glucose + 10% dialyzed FBS, 0.00234 µM
[25] = RPMI 5 mM glucose + 10% dialyzed FBS, 0.00702 µM
[26] = RPMI 5 mM glucose + 10% dialyzed FBS, 0.0211 µM
[27] = RPMI 5 mM glucose + 10% dialyzed FBS, 0.0632 µM
[28] = RPMI 5 mM glucose + 10% dialyzed FBS, 0.19 µM
[29] = RPMI 5 mM glucose + 10% dialyzed FBS, 0.569 µM
[30] = RPMI 5 mM glucose + 10% dialyzed FBS, 1.71 µM
[31] = RPMI 5 mM glucose + 10% dialyzed FBS, 5.12 µM
[32] = RPMI 5 mM glucose + 10% dialyzed FBS, 15.4 µM
[33] = RPMI 5 mM glucose + 10% dialyzed FBS, 46.1 µM

| SMILES | cell viability [1] [%] | cell viability [2] [%] | cell viability [3] [%] | cell viability [4] [%] | cell viability [5] [%] | cell viability [6] [%] | cell viability [7] [%] | cell viability [8] [%] | cell viability [9] [%] | cell viability [10] [%] | cell viability [11] [%] | cell viability [12] [%] | cell viability [13] [%] | cell viability [14] [%] | cell viability [15] [%] | cell viability [16] [%] | cell viability [17] [%] | cell viability [18] [%] | cell viability [19] [%] | cell viability [20] [%] | cell viability [21] [%] | cell viability [22] [%] | cell viability [23] [%] | cell viability [24] [%] | cell viability [25] [%] | cell viability [26] [%] | cell viability [27] [%] | cell viability [28] [%] | cell viability [29] [%] | cell viability [30] [%] | cell viability [31] [%] | cell viability [32] [%] | cell viability [33] [%] |
| --- | --- | --- | --- | --- | --- | --- | --- | --- | --- | --- | --- | --- | --- | --- | --- | --- | --- | --- | --- | --- | --- | --- | --- | --- | --- | --- | --- | --- | --- | --- | --- | --- | --- |
| COC1=CC=CC(=C1/C2=N/CC3=C(N=C(NC4=CC(=C(C=C4)C(O)=O)OC)N=C3)C5=CC=C(Cl)C=C25)F | 82.2 | 87.8 | 82.3 | 87.8 | 56 | 16.6 | 13.5 | 12 | 13.9 | 18.2 | 20.5 | 93.8 | 81.6 | 77.9 | 83 | 49 | 22.4 | 16 | 16 | 15.8 | 22.1 | 28.5 | 81 | 80.3 | 77.8 | 77.7 | 49.6 | 30 | 24.2 | 23 | 27.2 | 29.7 | 35.4 |
| COc1ccccc1N1CCN(CC(O)COc2cccc3ccccc23)CC1 (stereo not given) | 119 | 123 | 127 | 117 | 125 | 132 | 116 | 121 | 120 | 106 | 109 |  |  |  |  |  |  |  |  |  |  |  | 121 | 123 | 126 | 117 | 127 | 125 | 115 | 109 | 107 | 90.4 | 82.4 |
| CC(=O)[C@H]1CC[C@H]2[C@@H]3C/C=C4/C[C@@H](O)CC[C@]4(C)[C@H]3CC[C@]12C | 120 | 124 | 114 | 116 | 112 | 120 | 124 | 115 | 114 | 114 | 110 |  |  |  |  |  |  |  |  |  |  |  | 112 | 120 | 129 | 112 | 124 | 115 | 126 | 125 | 112 | 104 | 103 |
| COc1cc([S+](C)(=O)[O-])ccc1Nc1nc2ccc(-c3ccc(NC(=O)[C@H](C)c4ccc(F)cc4)cc3)cn2n1 | 109 | 106 | 108 | 110 | 120 | 117 | 120 | 49 | 56.4 | 61.4 | 65 | 103 | 116 | 118 | 108 | 113 | 117 | 114 | 37.2 | 55.1 | 56.4 | 57.1 |  |  |  |  |  |  |  |  |  |  |  |
| COc1c(C)c2c(c(O)c1C/C=C(\C)CCC(=O)OCCN1CCOCC1)C(=O)OC2 | 106 | 114 | 114 | 104 | 124 | 106 | 109 | 109 | 58.2 | 40.1 | 35.6 | 104 | 105 | 111 | 109 | 105 | 106 | 110 | 93.9 | 50.2 | 30.1 | 26 | 109 | 100 | 100 | 104 | 98.3 | 106 | 102 | 88.3 | 57.1 | 35.4 | 30.3 |
| CC[C@@H](C)[C@H](NC(=O)[C@H](CC1CCCCC1)NC(=O)c1ccno1)C(=O)N1CCC2(CCc3ccccc32)CC1 | 94 | 89.4 | 92.7 | 88.9 | 95 | 94.1 | 75.8 | 80.8 | 89.2 | 78.9 | 83.3 | 79 | 81.5 | 101 | 88.7 | 89.8 | 85.9 | 64.5 | 71.9 | 99.8 | 70.1 | 74.6 | 84.3 | 89.3 | 83.2 | 81.4 | 77.1 | 82.2 | 79.6 | 82 | 84.6 | 76 | 77 |
| CCN(CCO)CCCC(C)Nc1ccnc2cc(Cl)ccc12 (stereo not given) | 99.5 | 114 | 114 | 111 | 110 | 105 | 75.6 | 112 | 57.5 | 14.7 | 9.45 | 102 | 110 | 110 | 103 | 108 | 106 | 74.6 | 105 | 66.2 | 27.3 | 10.7 | 102 | 108 | 106 | 117 | 112 | 103 | 90.7 | 102 | 3.75 | 56.4 | 15.4 |
| COCCNCCCn1c(C(=O)CF)c(-c2ccc(C)cc2)c2c(N)ncnc21 | 108 | 95.8 | 104 | 102 | 111 | 103 | 102 | 95.1 | 85.3 | 94.5 | 87.2 | 118 | 100 | 108 | 103 | 107 | 104 | 101 | 103 | 104 | 96.7 | 91.7 | 103 | 96.7 | 116 | 98 | 106 | 101 | 105 | 89.8 | 94.7 | 83.7 | 72.2 |
| O=C1CCc2cc(OCCCCc3nnnn3C3CCCCC3)ccc2N1 | 90.5 | 92.6 | 87.5 | 95.7 | 96.4 | 97.6 | 94.2 | 95.6 | 96 | 97.4 | 96.9 | 78.9 | 93.8 | 89.2 | 81 | 91.2 | 94.2 | 98.1 | 95.8 | 85.2 | 98.5 | 99.2 | 90.2 | 88.1 | 90 | 94.6 | 88.4 | 91.8 | 95.9 | 90.2 | 89.6 | 88.1 | 87.1 |
| Cc1n[nH]c(C)c1Cc1sc2c(c1C(=O)N1C[C@H](O)CO1)c(=O)n(C)c(=O)n2CC(C)C | 116 | 117 | 119 | 121 | 109 | 98.8 | 93.4 | 92.6 | 94.3 | 91.4 | 83.4 | 117 | 118 | 131 | 120 | 109 | 107 | 95.6 | 95.8 | 84.3 | 89.9 | 83.8 | 113 | 118 | 114 | 114 | 107 | 98.2 | 91.6 | 92 | 94 | 88.5 | 83.7 |
| CC(C)C[C@@H](C(=O)N[C@H](C(=O)OC1CCCC1)c1ccccc1)[C@H](O)C(=O)NO | 109 | 111 | 112 | 114 | 108 | 108 | 104 | 105 | 95.5 | 86.8 | 59.7 | 103 | 119 | 114 | 113 | 107 | 116 | 110 | 93.8 | 89.6 | 69.8 | 37.1 | 112 | 113 | 115 | 116 | 111 | 103 | 110 | 102 | 89 | 89.6 | 35.9 |
| NCC/1=C/NC(=S)N1[C@H]2CCC3=C(F)C=C(F)C=C3C2 | 127 | 114 | 114 | 126 | 123 | 121 | 119 | 121 | 113 | 111 | 92.5 | 134 | 125 | 124 | 120 | 129 | 132 | 139 | 127 | 121 | 116 | 92.5 | 124 | 117 | 128 | 126 | 120 | 120 | 119 | 119 | 117 | 110 | 72.7 |
| O=C1N\N=C(\C[C@@H]2CCN(C2)C(=O)C3CC3)N1C4=CC=C(C=C4)C5=CC=C6OC=CC6=C5 | 79.6 | 82 | 83.2 | 86.1 | 91.9 | 81.5 | 81 | 88.7 | 83.7 | 83.2 | 80.3 | 76.3 | 77 | 77.1 | 78.3 | 87.6 | 75.5 | 73.6 | 78.8 | 82.1 | 78.2 | 83.9 | 83.3 | 79.8 | 81.6 | 84 | 93.6 | 84.5 | 91.1 | 80.6 | 82.9 | 86.3 | 85.7 |
| COc1ccc(-c2cc3c(C)nc(N)nc3n([C@H]3CC[C@H](OCCO)CC3)c2=O)cn1 | 103 | 107 | 103 | 85.5 | 88.3 | 72 | 66.2 | 66 | 63.9 | 63.5 | 48.2 | 98.2 | 95.3 | 85.9 | 78 | 70.2 | 55.1 | 51.4 | 44.8 | 42.7 | 37.9 | 35.4 | 96.6 | 98.2 | 85.1 | 76 | 72.3 | 58.7 | 55.5 | 45.9 | 39.3 | 38.7 | 37.4 |
| CN1\C(=C(O)/C2=C(C=C(Cl)S2)[S+]1([O-])=O)C(=O)NC3=NC=CC=C3 | 125 | 123 | 118 | 107 | 122 | 119 | 113 | 112 | 110 | 104 | 100 | 124 | 125 | 118 | 116 | 128 | 114 | 121 | 128 | 123 | 118 | 106 | 121 | 119 | 125 | 115 | 114 | 118 | 121 | 117 | 104 | 98.1 | 96.2 |
| CC/C(=C(\c1ccccc1)c1ccc(OCCN(C)C)cc1)c1ccccc1 | 102 | 106 | 102 | 104 | 95.8 | 109 | 104 | 109 | 113 | 104 | 86.3 | 99.9 | 102 | 96.2 | 118 | 89.7 | 102 | 104 | 99.4 | 108 | 100 | 83.9 | 113 | 108 | 113 | 114 | 95.3 | 112 | 117 | 117 | 104 | 102 | 76.9 |

Reference: the supplement of paper PMC11451515
